{
  "source": "patent EP1007024B1",
  "about": "(Pfizer Products Inc., priority 1997, dated 1999)",
  "key": {"[1]": {"assay": "Screening test for inhibition of precipitation or gelation of sertraline lactate when chloride is added", "assay_type": "physicochemical", "experimental": "Sodium chloride was then added (as a concentrated solution) and the result observed. An excipient was considered beneficial if the solution remained clear and fluid. The more chloride that could be added to an excipient solution with the solution remaining dear, the more beneficial was the excipient."}, "physchem [2]": {"assay": "physchem", "conditions": "water"}, "[3]": {"assay": "Screening of solubilizers for sertraline lactate solubility with and without chloride", "conditions": "water"}, "physchem [4]": {"assay": "physchem", "conditions": "water, Sertraline Lactate Solubility, in water, excipient None"}, "[5]": {"conditions": "male, human, in vivo", "experimental": "(§1) In a subset of a larger double-blind, randomized, placebo-controlled parallel group study, healthy male human subjects were divided into two groups (Study 1). […] The tablets were administered with 50 ml water. Group B received two placebo tablets. All subjects were dosed after an overnight fast.\n(§2) Analysis was carried out by capillary gas chromatography with electron capture detection. […] Tmax is the time at which Cmax is achieved.\n(§3) The data from these four subjects were not included in the pharmacokinetic averages."}, "clinical": {"assay": "clinical", "conditions": "human, in vivo, 200 mg", "experimental": "as §1, §2, §3"}, "[6]": {"assay": "Pharmacokinetics of 200 mg sertraline delivered to various portions of the gastrointestinal tract (four-way crossover)", "assay_type": "in vivo", "conditions": "human, plasma", "experimental": "Dosing was via (1) oral tablets, or (2) infusion of a solution through a nasoenteric tube into the stomach, duodenum, or ileocecal region of the small intestine, or (3) infusion into the transverse colon via anal intubation.\nThe infusions were administered as a 2 mg/ml solution at a rate of 20 ml/min for 5 min.\nAnalysis was carried out by capillary gas chromatography with electron capture detection."}, "[7]": {"conditions": "oral administration of known immediate-release dosage forms, plasma; cited from earlier work"}, "[8]": {"assay": "Side effects by visual analogue scales and PK/PD plots (Study I, Study II)", "assay_type": "in vivo, human", "experimental": "as §1\nPrior to dosing and each blood sampling time, each subject filled out a questionnaire, which consisted of a series of \"Visual Analogue Scales\" in which the subject was required to rate, on a scale of 0-10, the severity of certain potential side effects. The subjects were instructed that \"0\" indicated an absent effect and \"10\" indicated the worst possible effect The subjects were instructed to interpolate between 0 and 10 for moderate side effects.\nA total of 30 subjects completed Study I: 15 each in Groups A and B. For each side effect evaluated at 30 time points, a total of 900 individual visual-analogue-scale evaluations were obtained."}, "[9]": {"conditions": "Group A, Ileocecal Infusion of 2 mg/ml solution"}, "[10]": {"conditions": "Group A, Stomach Infusion of 2 mg/ml solution"}, "[11]": {"conditions": "Group B, Colonic Infusion of 2 mg/ml solution"}, "[12]": {"conditions": "Group B, Duodenal Infusion of 2 mg/ml solution"}},
  "note": "Where a name gives a salt, the structure may show the parent alone. Read-outs that look alike come from different tables or passages of the source.",
  "data": [
    {"smiles": "O=C1O[C@H]([C@@H](O)CO)C(O)=C1O", "note": "[Ascorbic acid]", "values": [
      {"measurement": "Observation After NaCI Addition", "setting": "[1]; sertraline lactate with excipient, NaCl 100 mM", "value": "predpitate"}
    ]},
    {"smiles": "N[C@@H](Cc1c[nH]cn1)C(=O)O", "note": "[Histidine]", "values": [
      {"measurement": "Observation After NaCI Addition", "setting": "[1]; sertraline lactate with excipient, NaCl 150 mM", "value": "slight precipitate"}
    ]},
    {"smiles": "CN[C@H]1CC[C@@H](c2ccc(Cl)c(Cl)c2)c2ccccc21", "note": "[sertraline hydrochloride]", "values": [
      {"measurement": "solubility", "setting": "physchem [2]", "value": 2.5, "unit": "mg/mL"}
    ]},
    {"smiles": "CN[C@H]1CC[C@@H](c2ccc(Cl)c(Cl)c2)c2ccccc21", "note": "[sertraline lactate]", "values": [
      {"measurement": "solubility", "setting": "[3]", "value": 125, "unit": "mg/mL"},
      {"measurement": "solubility", "setting": "physchem [4]", "value": "~125", "unit": "mg/mL"},
      {"measurement": "Observation After NaCI Addition", "setting": "[1]; sertraline lactate in water alone (control), NaCl 38 mM", "value": "gel/precipitate"}
    ]},
    {"smiles": "CN[C@H]1CC[C@@H](c2ccc(Cl)c(Cl)c2)c2ccccc21", "note": "[sertraline]", "values": [
      {"measurement": "average Tmax", "setting": "[5]", "value": 6, "unit": "h"},
      {"measurement": "AUC", "setting": "clinical", "value": 1740, "unit": "ng·h/mL"},
      {"measurement": "Cmax", "setting": "clinical; male", "value": "~70", "unit": "ng/mL"},
      {"measurement": "Cmax", "setting": "[6]; [9]", "value": 27.3, "unit": "ng/mL"},
      {"measurement": "Tmax", "setting": "[6]; [9]", "value": 5, "unit": "h"},
      {"measurement": "Cmax", "setting": "[6]; [10]", "value": 35.6, "unit": "ng/mL"},
      {"measurement": "Tmax", "setting": "[6]; [10]", "value": 7, "unit": "h"},
      {"measurement": "Cmax", "setting": "[6]; Group B, Colonic Infusion (transverse colon) of 2 mg/ml solution", "value": 10.9, "unit": "ng/mL"},
      {"measurement": "AUC", "setting": "[6]; [11]", "value": 179, "unit": "ng·h/mL"},
      {"measurement": "Tmax", "setting": "[6]; [11]", "value": 4.4, "unit": "h"},
      {"measurement": "AUC", "setting": "[6]; [12]", "value": 1270, "unit": "ng·h/mL"},
      {"measurement": "Cmax", "setting": "[6]; [12]", "value": 48.8, "unit": "ng/mL"},
      {"measurement": "Tmax", "setting": "[6]; [12]", "value": 3.7, "unit": "h"},
      {"measurement": "Cmax", "setting": "[6]; po, Group A, Oral Tablet (two 100 mg immediate release tablets), group average", "value": 39.9, "unit": "ng/mL"},
      {"measurement": "Tmax", "setting": "[6]; po, Group A, Oral Tablet, group average", "value": 7, "unit": "h"},
      {"measurement": "AUC", "setting": "[6]; po, Group B, Oral Tablet", "value": 1150, "unit": "ng·h/mL"},
      {"measurement": "Tmax", "setting": "[6]; po, Group B, Oral Tablet", "value": 6.7, "unit": "h"},
      {"measurement": "Cmax", "setting": "[6]; po, Group B, Oral Tablet (two 100 mg immediate release tablets)", "value": 44.7, "unit": "ng/mL"},
      {"measurement": "Tmax", "setting": "[7]", "value": "6 to 7", "unit": "h"},
      {"measurement": "side effect score for diarrhea vs plasma sertraline concentration curve", "setting": "[8]; Study 1, 200 mg bolus dose", "value": "clockwise hysteresis"},
      {"measurement": "PK/PD plot, average visual analogue score for nausea vs plasma sertraline concentration", "setting": "[8]; Study I, Group A, 200 mg bolus dose, Figure 1", "value": "clockwise hysteresis"},
      {"measurement": "subjects with emesis (regurgitation)", "setting": "[8]; Study II, 200 mg dose group", "value": "Four and four"}
    ]}
  ]
}
